Data on 4 molecules can be found in PMC11597854 (2024).

In assay [1] the test system is hTel23 (DNA, G4) TAGGGTTAGGGTTAGGGTTAGGG
The assay can be described thus: CD titration, Hill fit. Conditions: 80 mM KCl, 10 mM KH2PO4 (90 mM K+), pH 7.3, 5 °C, up to 0.9% DMSO, apparent.

Assay [2] has the same test system. In words: CD melting. To be noted: 80 mM KCl, 10 mM KH2PO4 (90 mM K+); pH 7.3; 5 equiv. complex (25 µM), 5 µM DNA, 0.5 °C/min.

As for `[Au+].[C]1C2=C(CCCC2)N2CCCCN12.[C]1C2=C(CCCC2)N2CCCCN12`, the Kd in assay [1] (272 nm (parallel form), 290 nm (hybrid) gives 17) stood at 5.1 µM. Further, the ΔTM in assay [2] is −4 °C. Consider `[Au+].[C]1N(Cc2ccccn2)C=CN1c1c2ccccc2nc2ccccc12.[C]1N(Cc2ccccn2)C=CN1c1c2ccccc2nc2ccccc12`, for which the ΔTM result in assay [2] is “+1 °C”.

Regarding `CC(=O)NCCN1[C]N2C=CC=CC2=C1.CC(=O)NCCN1[C]N2C=CC=CC2=C1.[Au+]`, in assay [1] (290 nm (hybrid form)), the Kd came to 9.7 µM. Besides, the ΔTM in assay [2] was −13 °C.

`CCN1[C]N(CC)C(c2ccc(OC)cc2)=C1c1ccc(OC)cc1.CCN1[C]N(CC)C(c2ccc(OC)cc2)=C1c1ccc(OC)cc1.[Au+]`: the ΔTM in assay [2] is −2 °C.
